Measurements: US6914045B2, “Glycopeptide antibiotics” (Wyeth Holdings Corporation, priority 2001, dated 2005)
Converted amounts (≈) assume the structure as drawn.

Experiments:
Experiment in all cases: in vitro antibacterial evaluation, MIC by broth dilution
Format in all cases: cell-based
Enterococcus sp. = details: broth dilution, 18 hours at 35° C.
In short: (§1)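 Broth dilution per NCCLS M7-A2 in Mueller-Hinton II medium, inoculum 5×10^5 CFU/mL, antibiotic range 64-0.06 μg/mL. MIC taken as lowest concentration inhibiting growth; Gram-positive panel includes recent clinical isolates resistant to methicillin, penicillin and/or vancomycin.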

Escherichia coli = details: 18 hours at 35° C.
In short: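 Step 1: dilute antibiotic across 64-0.06 μg/mL in Muller-Hinton II […]. Step 2: inoculate at 5×10^5 CFU/mL.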

Staphylococcus sp. = details: broth dilution, 18 hours at 35° C.
In short: as §1

Streptococcus sp. = details: broth dilution, 18 hours at 35° C.
In short: as §1

CC(c1ccccc1)C1NC(=O)CNC(=O)C(CO)NC(=O)C(C(O)C2CNC(=N)N2C2OC(CO)C(O)C(O)C2O)NC(=O)C(C(O)C2CNC(=N)N2)NC(=O)C(Cc2ccc(OC3OC(CO)C(OC4OC(COC(=O)NCc5ccccc5)C(O)C(O)C4O)C(O)C3O)cc2)NC1=O (stereo not drawn) [Example 257b]
MIC Enterococcus avium (GC 4558) (Enterococcus sp.; Enterococcus avium (GC 4558)): 0.5 µg/mL (≈ 0.35 µM)
MIC Enterococcus faecalis (ATCC 29212) (Enterococcus sp.; Enterococcus faecalis (ATCC 29212)): 0.5 µg/mL (≈ 0.35 µM)
MIC Enterococcus faecalis (GC 4553) (Enterococcus sp.; Enterococcus faecalis (GC 4553)): 0.5 µg/mL (≈ 0.35 µM)
MIC Enterococcus faecalis (GC 4554) (Enterococcus sp.; Enterococcus faecalis (GC 4554)): >0.5 µg/mL
MIC Enterococcus faecalis (GC 6189) (Enterococcus sp.; Enterococcus faecalis (GC 6189)): 0.5 µg/mL (≈ 0.35 µM)
MIC Enterococcus faecium (GC 2243) (Enterococcus sp.; Enterococcus faecium (GC 2243)): 16 µg/mL (≈ 11.2 µM)
MIC Enterococcus faecium (GC 4556) (Enterococcus sp.; Enterococcus faecium (GC 4556)): 16 µg/mL (≈ 11.2 µM)
MIC Enterococcus faecium (GC 4557) (Enterococcus sp.; Enterococcus faecium (GC 4557)): 2 µg/mL (≈ 1.4 µM)
MIC Enterococcus faecalis (GC 2242) (Enterococcus sp.): 0.5 µg/mL (≈ 0.35 µM)
MIC Enterococcus faecalis (GC 2691) (Enterococcus sp.): 0.5 µg/mL (≈ 0.35 µM)
MIC Enterococcus faecalis (GC 3059) (Enterococcus sp.): 0.5 µg/mL (≈ 0.35 µM)
MIC Enterococcus faecalis (GC 4552) (Enterococcus sp.): >0.5 µg/mL
MIC Enterococcus faecalis (ATCC 29212) (Enterococcus sp.; strain ATCC 29212): 0.5 µg/mL (≈ 0.35 µM)
MIC Enterococcus faecalis (GC 2242) (Enterococcus sp.; strain GC 2242): 0.5 µg/mL (≈ 0.35 µM)
MIC Enterococcus faecium (GC 2243) (Enterococcus sp.; strain GC 2243): 16 µg/mL (≈ 11.2 µM)
MIC Enterococcus faecalis (GC 2691) (Enterococcus sp.; strain GC 2691): 0.5 µg/mL (≈ 0.35 µM)
MIC Enterococcus faecalis (GC 3059) (Enterococcus sp.; strain GC 3059): 0.5 µg/mL (≈ 0.35 µM)
MIC Enterococcus faecalis (GC 4552) (Enterococcus sp.; strain GC 4552): >0.5 µg/mL
MIC Enterococcus faecalis (GC 4553) (Enterococcus sp.; strain GC 4553): 0.5 µg/mL (≈ 0.35 µM)
MIC Enterococcus faecalis (GC 4554) (Enterococcus sp.; strain GC 4554): >0.5 µg/mL
MIC Enterococcus faecium (GC 4556) (Enterococcus sp.; strain GC 4556): 16 µg/mL (≈ 11.2 µM)
MIC Enterococcus faecium (GC 4557) (Enterococcus sp.; strain GC 4557): 2 µg/mL (≈ 1.4 µM)
MIC Enterococcus avium (GC 4558) (Enterococcus sp.; strain GC 4558): 0.5 µg/mL (≈ 0.35 µM)
MIC Enterococcus faecalis (GC 6189) (Enterococcus sp.; strain GC 6189): 0.5 µg/mL (≈ 0.35 µM)
MIC Escherichia coli (ATCC 25922) (Escherichia coli; Escherichia coli (ATCC 25922)): >0.5 µg/mL
MIC Escherichia coli (GC 4559) (Escherichia coli; Escherichia coli (GC 4559)): >0.5 µg/mL
MIC Escherichia coli (GC 4560) (Escherichia coli; Escherichia coli (GC 4560)): 0.5 µg/mL (≈ 0.35 µM)
MIC Coagulase Negative Staphylococcus (GC 4547) (Staphylococcus sp.): 2 µg/mL (≈ 1.4 µM)
MIC Coagulase Negative Staphylococcus (GC 4548) (Staphylococcus sp.): 2 µg/mL (≈ 1.4 µM)
MIC Coagulase Negative Staphylococcus (GC 4549) (Staphylococcus sp.): 2 µg/mL (≈ 1.4 µM)
MIC Coagulase Negative Staphylococcus (GC 4551) (Staphylococcus sp.): 4 µg/mL (≈ 2.8 µM)
MIC Coagulase Negative Staphylococcus (GC 6257) (Staphylococcus sp.): 1 µg/mL (≈ 0.7 µM)
MIC Staphylococcus aureus (ATCC 29213) (Staphylococcus sp.): 0.5 µg/mL (≈ 0.35 µM)
MIC Staphylococcus aureus (GC 1131) (Staphylococcus sp.): 0.5 µg/mL (≈ 0.35 µM)
MIC Staphylococcus aureus (GC 3051) (Staphylococcus sp.): 0.5 µg/mL (≈ 0.35 µM)
MIC Staphylococcus aureus (GC 3053) (Staphylococcus sp.): 0.5 µg/mL (≈ 0.35 µM)
MIC Staphylococcus aureus (GC 4541) (Staphylococcus sp.): 0.5 µg/mL (≈ 0.35 µM)
MIC Staphylococcus aureus (GC 4542) (Staphylococcus sp.): 0.5 µg/mL (≈ 0.35 µM)
MIC Staphylococcus aureus (GC 4544) (Staphylococcus sp.): 0.5 µg/mL (≈ 0.35 µM)
MIC Staphylococcus aureus (GC 4545) (Staphylococcus sp.): 0.5 µg/mL (≈ 0.35 µM)
MIC Staphylococcus aureus-SMITH (GC 4543) (Staphylococcus sp.): 0.5 µg/mL (≈ 0.35 µM)
MIC Staphylococcus haemolyticus (GC 4546) (Staphylococcus sp.): 2 µg/mL (≈ 1.4 µM)
MIC Staphylococcus aureus (ATCC 29213) (Staphylococcus sp.; strain ATCC 29213): 0.5 µg/mL (≈ 0.35 µM)
MIC Staphylococcus aureus (GC 1131) (Staphylococcus sp.; strain GC 1131): 0.5 µg/mL (≈ 0.35 µM)
MIC Staphylococcus aureus (GC 3051) (Staphylococcus sp.; strain GC 3051): 0.5 µg/mL (≈ 0.35 µM)
MIC Staphylococcus aureus (GC 3053) (Staphylococcus sp.; strain GC 3053): 0.5 µg/mL (≈ 0.35 µM)
MIC Staphylococcus aureus (GC 4541) (Staphylococcus sp.; strain GC 4541): 0.5 µg/mL (≈ 0.35 µM)
MIC Staphylococcus aureus (GC 4542) (Staphylococcus sp.; strain GC 4542): 0.5 µg/mL (≈ 0.35 µM)
MIC Staphylococcus aureus (GC 4544) (Staphylococcus sp.; strain GC 4544): 0.5 µg/mL (≈ 0.35 µM)
MIC Staphylococcus aureus (GC 4545) (Staphylococcus sp.; strain GC 4545): 0.5 µg/mL (≈ 0.35 µM)
MIC Streptococcus agalactiae (GC 4564) (Streptococcus sp.): 1 µg/mL (≈ 0.7 µM)
MIC Streptococcus pneumoniae (ATCC 6301) (Streptococcus sp.): 0.25 µg/mL (≈ 0.175 µM)
MIC Streptococcus pneumoniae (GC 1894) (Streptococcus sp.): 0.25 µg/mL (≈ 0.175 µM)
MIC Streptococcus pneumoniae (GC 4565) (Streptococcus sp.): 0.5 µg/mL (≈ 0.35 µM)
MIC Streptococcus pyogenes (GC 4563) (Streptococcus sp.): 0.12 µg/mL (≈ 0.084 µM)
MIC Streptococcus pneumoniae (ATCC 6301) (Streptococcus sp.; strain ATCC 6301): 0.25 µg/mL (≈ 0.175 µM)
MIC Streptococcus pneumoniae (GC 1894) (Streptococcus sp.; strain GC 1894): 0.25 µg/mL (≈ 0.175 µM)
MIC Streptococcus pyogenes (GC 4563) (Streptococcus sp.; strain GC 4563): 0.12 µg/mL (≈ 0.084 µM)
MIC Streptococcus agalactiae (GC 4564) (Streptococcus sp.; strain GC 4564): 1 µg/mL (≈ 0.7 µM)
MIC Streptococcus pneumoniae (GC 4565) (Streptococcus sp.; strain GC 4565): 0.5 µg/mL (≈ 0.35 µM)
